In patent publication US8426408B2, “Pyrimidine inhibitors of kinases” (AbbVie Inc., priority 2009, dated 2013):

Key:
Type in all cases: biochemical
Aurora B = biological target: T1, Aurora B (Homo sapiens, UniProt Q96GD4); assay: Aurora B enzyme inhibition (time-resolved fluorescence, histone H3 peptide); conditions: 1 mM ATP
T1 construct: Active Aurora B enzyme (recombinant residues 1-344)
How it was run: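 IC50s came from an exponential fit of inhibition against inhibitor concentration, with phosphorylation read as the 665/615 nm time-resolved fluorescence ratio after EDTA stop using Eu-anti-phospho-H3 and SA-APC. The 1 h reaction used Aurora B 1-344 plus GST-INCENP, biotin-histone H3 1-21 peptide and 1 mM ATP in pH 7.4 HEPES buffer.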

Aurora A = biological target: T2, Aurora A (Homo sapiens, UniProt O14965); assay: Aurora A enzyme inhibition (time-resolved fluorescence, STK substrate-2); conditions: 1 mM ATP
T2 sequence (O14965 1-403): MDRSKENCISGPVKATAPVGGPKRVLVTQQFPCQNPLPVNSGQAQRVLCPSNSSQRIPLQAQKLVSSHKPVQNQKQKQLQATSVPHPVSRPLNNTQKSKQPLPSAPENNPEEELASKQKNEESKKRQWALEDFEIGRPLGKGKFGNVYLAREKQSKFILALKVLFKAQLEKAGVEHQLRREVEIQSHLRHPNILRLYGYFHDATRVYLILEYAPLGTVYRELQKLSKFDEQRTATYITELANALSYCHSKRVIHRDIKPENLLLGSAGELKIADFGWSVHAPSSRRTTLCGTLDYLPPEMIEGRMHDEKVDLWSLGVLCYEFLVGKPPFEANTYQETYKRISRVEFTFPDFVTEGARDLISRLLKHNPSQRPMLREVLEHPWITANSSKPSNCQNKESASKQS
How it was run: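 Phosphorylation of biotinylated STK substrate-2 at 1 mM ATP, 1 h, Hepes buffer pH 7.4 (MgCl2, sodium orthovanadate, Triton X-100). After EDTA quench, 665/615 nm time-resolved fluorescence ratio read via europium anti-phospho antibody and SA-XL665; IC50 from exponential fit versus inhibitor concentration.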

KDR = KDR (Homo sapiens, UniProt P35968); assay: KDR HTRF in vitro kinase assay; set-up: purified enzyme (His6-KDR 789-1354, MW 63 kD); His6 (N); conditions: 1 mM ATP; read-out: KDR enzyme inhibition data (Ki)
How it was run: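 His6-KDR 789-1354 (7 ng/well) with 0.5 μM biotinylated peptide substrate and 1 mM ATP in HEPES pH 7.1, MgCl2/MnCl2, 60 min at room temperature. EDTA-quenched, detected by streptavidin-XL-665 plus Eu-kryptate anti-phosphotyrosine HTRF after 3 h; IC50 from 620/665 nm ratio.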

Measured: Ki

KDR, sequence (P35968 789-1354): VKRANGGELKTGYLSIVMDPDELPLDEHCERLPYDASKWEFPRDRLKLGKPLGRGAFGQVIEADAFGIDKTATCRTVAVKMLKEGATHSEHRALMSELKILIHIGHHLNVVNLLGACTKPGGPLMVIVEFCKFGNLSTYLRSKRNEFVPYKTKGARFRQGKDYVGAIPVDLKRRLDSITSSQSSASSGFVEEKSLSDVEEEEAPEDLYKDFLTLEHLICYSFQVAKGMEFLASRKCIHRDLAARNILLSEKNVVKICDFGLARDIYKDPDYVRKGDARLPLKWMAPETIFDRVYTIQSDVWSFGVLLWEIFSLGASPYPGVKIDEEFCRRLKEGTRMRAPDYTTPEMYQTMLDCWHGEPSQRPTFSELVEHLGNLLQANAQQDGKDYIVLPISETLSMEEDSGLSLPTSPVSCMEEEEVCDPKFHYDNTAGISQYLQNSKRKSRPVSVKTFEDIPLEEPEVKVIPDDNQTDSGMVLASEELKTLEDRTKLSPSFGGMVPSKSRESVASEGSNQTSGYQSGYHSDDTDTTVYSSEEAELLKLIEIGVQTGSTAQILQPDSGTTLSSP
T1 sequence (Q96GD4 whole entry, the tested form may be a part): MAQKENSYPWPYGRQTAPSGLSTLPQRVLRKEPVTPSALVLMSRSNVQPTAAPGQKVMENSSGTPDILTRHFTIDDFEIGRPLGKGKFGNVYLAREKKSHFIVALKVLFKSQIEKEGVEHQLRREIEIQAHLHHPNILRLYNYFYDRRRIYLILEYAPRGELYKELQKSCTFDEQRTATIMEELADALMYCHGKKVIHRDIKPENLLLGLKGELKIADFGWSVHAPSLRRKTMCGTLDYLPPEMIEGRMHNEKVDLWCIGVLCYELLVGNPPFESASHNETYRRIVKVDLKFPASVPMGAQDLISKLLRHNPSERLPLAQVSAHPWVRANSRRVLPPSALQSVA
T1 sequence (Q9NQS7 826-918 partner limits assumed): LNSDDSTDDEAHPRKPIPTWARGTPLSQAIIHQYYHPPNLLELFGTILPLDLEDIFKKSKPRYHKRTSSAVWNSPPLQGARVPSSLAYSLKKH

CCn1cc(Nc2ncc([N+](=O)[O-])c(N[C@H]3[C@@H](C(N)=O)[C@@H]4C=C[C@H]3C4)n2)cn1 [Example 140, (1S,2S,3R,4R)-3-({2-[(1-ethyl-1H-pyrazol-4-yl)amino]-5-nitropyrimidin-4-yl}amino)bicyclo[2.2.1]hept-5-ene-2-carboxamide]
< 100 nM: all assays above

Cn1cc(Nc2ncc(C(F)(F)F)c(Nc3ccccc3C3(O)CCC3)n2)cn1 [Example 115, 1-[2-({2-[(1-methyl-1H-pyrazol-4-yl)amino]-5-(trifluoromethyl)pyrimidin-4-yl}amino)phenyl]cyclobutanol]
< 100 nM: all assays above

NC(=O)[C@H]1[C@@H]2CC[C@@H](C2)[C@H]1Nc1nc(Nc2cnn(CCO)c2)ncc1Cl [Example 93, (1R,2S,3R,4S)-3-[(5-chloro-2-{[1-(2-hydroxyethyl)-1H-pyrazol-4-yl]amino}pyrimidin-4-yl)amino]bicyclo[2.2.1]heptane-2-carboxamide]
< 100 nM: all assays above

CCn1cc(Nc2ncc(Cl)c(N[C@@H]3[C@@H]4CC[C@@H](C4)[C@@H]3C(N)=O)n2)cn1.CCn1cc(Nc2ncc(Cl)c(N[C@H]3[C@H]4CC[C@H](C4)[C@H]3C(N)=O)n2)cn1 (mixture of isomers) [Example 114, (1R,2R,3S,4S)-3-({5-chloro-2-[(1-ethyl-1H-pyrazol-4-yl)amino]pyrimidin-4-yl}amino)bicyclo[2.2.1]heptane-2-carboxamide and (1S,2S,3R,4R)-3-({5-chloro-2-[(1-ethyl-1H-pyrazol-4-yl)amino]pyrimidin-4-yl}amino)bicyclo[2.2.1]heptane-2-carboxamide]
< 100 nM: all assays above

NC(=O)[C@@H]1[C@H](Nc2nc(Nc3cnn(C4CCC4)c3)ncc2Cl)[C@H]2C=C[C@@H]1C2 [Example 118, (1S,2S,3R,4R)-3-({5-chloro-2-[(1-cyclobutyl-1H-pyrazol-4-yl)amino]pyrimidin-4-yl}amino)bicyclo[2.2.1]hept-5-ene-2-carboxamide]
< 100 nM: all assays above

NC(=O)[C@@H]1[C@H](Nc2nc(Nc3cnn(Cc4ccccc4Cl)c3)ncc2Br)[C@H]2C=C[C@@H]1C2 [Example 171, (1S,2S,3R,4R)-3-[(5-bromo-2-{[1-(2-chlorobenzyl)-1H-pyrazol-4-yl]amino}pyrimidin-4-yl)amino]bicyclo[2.2.1]hept-5-ene-2-carboxamide]
< 100 nM: all assays above

NC(=O)[C@@H]1[C@H](Nc2nc(Nc3cnn(Cc4ccc5ccccc5c4)c3)ncc2Cl)[C@H]2C=C[C@@H]1C2 [Example 179, (1S,2S,3R,4R)-3-[(5-chloro-2-{[1-(2-naphthylmethyl)-1H-pyrazol-4-yl]amino}pyrimidin-4-yl)amino]bicyclo[2.2.1]hept-5-ene-2-carboxamide]
< 100 nM: all assays above

NC(=O)[C@@H]1[C@H](Nc2nc(Nc3cnn(CCc4cccc(Cl)c4)c3)ncc2Cl)[C@H]2C=C[C@@H]1C2 [Example 158, (1S,2S,3R,4R)-3-{[5-chloro-2-({1-[2-(3-chlorophenyl)ethyl]-1H-pyrazol-4-yl}amino)pyrimidin-4-yl]amino}bicyclo[2.2.1]hept-5-ene-2-carboxamide]
< 100 nM: all assays above

CC(O)Cn1cc(Nc2ncc(C(F)(F)F)c(NC3C4C=CC(C4)C3C(N)=O)n2)cn1 (mixture of isomers) [Example 19, (1R,2R,3S,4S)-3-{[2-({1-[(2R)-2-hydroxypropyl]-1H-pyrazol-4-yl}amino)-5-(trifluoromethyl)pyrimidin-4-yl]amino}bicyclo[2.2.1]hept-5-ene-2-carboxamide and (1S,2S,3R,4R)-3-{[2-({1-[(2R)-2-hydroxypropyl]-1H-pyrazol-4-yl}amino)-5-(trifluoromethyl)pyrimidin-4-yl]amino}bicyclo[2.2.1]hept-5-ene-2-carboxamide]
< 100 nM: all assays above

Cn1cc(Nc2ncc(C(F)(F)F)c(Nc3ccccc3C3(O)CNC3)n2)cn1 [Example 109, 3-[2-({2-[(1-methyl-1H-pyrazol-4-yl)amino]-5-(trifluoromethyl)pyrimidin-4-yl}amino)phenyl]azetidin-3-ol]
< 100 nM: all assays above

CCn1cc(Nc2ncc(C(F)(F)F)c(N[C@@H]3[C@H]4CC[C@H](C4)[C@@H]3C(N)=O)n2)cn1.CCn1cc(Nc2ncc(C(F)(F)F)c(N[C@H]3[C@@H]4CC[C@@H](C4)[C@H]3C(N)=O)n2)cn1 (mixture of isomers) [Example 24, (1R,2S,3R,4S)-3-{[2-[(1-ethyl-1H-pyrazol-4-yl)amino]-5-(trifluoromethyl)pyrimidin-4-yl]amino}bicyclo[2.2.1]heptane-2-carboxamide and (1S,2R,3S,4R)-3-{[2-[(1-ethyl-1H-pyrazol-4-yl)amino]-5-(trifluoromethyl)pyrimidin-4-yl]amino}bicyclo[2.2.1]heptane-2-carboxamide]
< 100 nM: all assays above

NC(=O)[C@@H]1[C@H](Nc2nc(Nc3cnn(C[C@H](O)CO)c3)ncc2Cl)[C@H]2C=C[C@@H]1C2 [Example 124, (1S,2S,3R,4R)-3-{[5-chloro-2-({1-[(2S)-2,3-dihydroxypropyl]-1H-pyrazol-4-yl}amino)pyrimidin-4-yl]amino}bicyclo[2.2.1]hept-5-ene-2-carboxamide]
< 100 nM: all assays above

NC(=O)[C@@H]1[C@H](Nc2nc(Nc3cnn(CC(=O)O)c3)ncc2Cl)[C@H]2C=C[C@@H]1C2 [Example 103, {4-[(4-{[(1R,2R,3S,4S)-3-carbamoylbicyclo[2.2.1]hept-5-ene-2-yl]amino}-5-chloropyrimidin-2-yl)amino]-1H-pyrazol-1-yl}acetic acid]
< 100 nM: all assays above

NC(=O)[C@@H]1[C@H](Nc2nc(Nc3cnn(C[C@H]4CCCN4)c3)ncc2Cl)[C@H]2C=C[C@@H]1C2 [Example 102, (1S,2S,3R,4R)-3-{[5-chloro-2-({1-[(2R)-pyrrolidin-2-ylmethyl]-1H-pyrazol-4-yl}amino)pyrimidin-4-yl]amino}bicyclo[2.2.1]hept-5-ene-2-carboxamide]
< 100 nM: all assays above

COCCn1cc(Nc2ncc(Br)c(N[C@H]3[C@@H](C(N)=O)[C@@H]4C=C[C@H]3C4)n2)cn1 [Example 106, (1S,2S,3R,4R)-3-[(5-bromo-2-{[1-(2-methoxyethyl)-1H-pyrazol-4-yl]amino}pyrimidin-4-yl)amino]bicyclo[2.2.1]hept-5-ene-2-carboxamide]
< 100 nM: all assays above

CN1CCN(CCn2cc(Nc3ncc(Cl)c(N[C@H]4[C@@H](C(N)=O)[C@@H]5C=C[C@H]4C5)n3)cn2)CC1 [Example 91, (1S,2S,3R,4R)-3-{[5-chloro-2-({1-[2-(4-methylpiperazin-1-yl)ethyl]-1H-pyrazol-4-yl}amino)pyrimidin-4-yl]amino}bicyclo[2.2.1]hept-5-ene-2-carboxamide]
< 100 nM: all assays above

NC(=O)[C@@H]1[C@H](Nc2nc(Nc3cnn(C[C@H](O)CO)c3)ncc2Br)[C@H]2C=C[C@@H]1C2 [Example 131, (1S,2S,3R,4R)-3-{[5-bromo-2-({1-[(2S)-2,3-dihydroxypropyl]-1H-pyrazol-4-yl}amino)pyrimidin-4-yl]amino}bicyclo[2.2.1]hept-5-ene-2-carboxamide]
< 100 nM: all assays above

NC(=O)[C@@H]1[C@H](Nc2nc(Nc3cnn(C[C@@H](O)CO)c3)ncc2Cl)[C@H]2C=C[C@@H]1C2 [Example 130, (1S,2S,3R,4R)-3-{[5-chloro-2-({1-[(2R)-2,3-dihydroxypropyl]-1H-pyrazol-4-yl}amino)pyrimidin-4-yl]amino}bicyclo[2.2.1]hept-5-ene-2-carboxamide]
< 100 nM: all assays above

NC(=O)[C@@H]1[C@H](Nc2nc(Nc3cnn([C@@H]4CCOC4)c3)ncc2Cl)[C@H]2C=C[C@@H]1C2 [Example 107, (1S,2S,3R,4R)-3-{[5-chloro-2-({1-[(3R)-tetrahydrofuran-3-yl]-1H-pyrazol-4-yl}amino)pyrimidin-4-yl]amino}bicyclo[2.2.1]hept-5-ene-2-carboxamide]
< 100 nM: all assays above
